Reference: patent US8466311B2, “Neuroprotective compositions and methods” (Sanford-Burnham Medical Research Institute, priority 2006, dated 2013)

Tests used:
[1] = system: ARE; experiment: ARE(GSTYa)-luciferase reporter in PC12h cells; assay type: cell-based
Protocol: (1) pGL3-GSTYa ARE core-luciferase vector. […] The dsDNA thus obtained was inserted into the Mlu l and Bglll sites of the pGL3-promoter vector (Promega Co., Madison, Wis.).
Transient transfection and measurement of luciferase activity. PC12h cells or cerebrocortical cultures (E17, DIV21) were incubated for 5 h in EBSS containing 1 μg of a plasmid DNA plus Lipofectamine 2000 (Invitrogen, Carlsbad, Calif.). Transfection efficiency was normalized to β-galactosidase activity expressed by co-transfection with pSV-β-gal (Promega). For reporter gene assays, cells were transfected with 1 μg of the reporter construct [ARE(GSTYa)-luciferase] and 0.2 μg pSV-β-gal for 1 hour. […] Firefly luciferase activity and β-galactosidase activity in cell lysates were measured using a Luciferase System and β-Galactosidase Enzyme Assay System, respectively (Promega, Madison, Wis.).
Next, we examined the involvement of the Keap1/Nrf2 pathway more precisely by studying activation of the ARE. This transcription element responds to the Keap1/Nrf2 pathway; we monitored activation of the ARE by performing luciferase reporter gene assays using PC12h cells transfected with ARE(GSTYa)-luciferase (Alam et al., J. Biol. Chem. 274:26071-26077, 1999) in the presence or absence of an Nrf2 dominant-negative (DN) or Keap1 expression vector.

[2] = system: HO-1 and γ-GCS; experiment: Phase 2 enzyme induction in brain (RT-PCR); assay type: in vivo, mouse; settings: food containing 0.03% CA for a week
Protocol: RT-PCR. In order to examine phase 2 gene induction by CA in PC12h cells and brain lysates, RT-PCR of total RNA from cortical cultures was performed using the following primer pairs (Hosoya et al., J. Bioi. Chern. 29:27244-27250, 2005; Kobayashi et al., Mol. Cell. Biol. 26:221-229, 2006): CypA (89 bp), 5′-ACAGGTCCTGGCATCTTGTC-3′ (SEQ ID NO: 18)(sense) and 5′-[…] -3′ (SEQ ID NO: 19)(antisense); H0-1 (284 bp), 5′-CAGTCGCCTCCAGAGTTTCC -3′ (SEQ ID NO: 20)(sense) and 5′- TACAAGGAGGCCATCACCAGC-3′ (SEQ ID NO: 21)(antisense); GCL-M (280 bp), 5′- CTGCTAAACTGTTCATTGTAGG-3′ (SEQ ID NO: 22)(sense) and 5′- CTA TTG GGT TIT ACC TGT G-3′ (SEQ ID NO: 23)(antisense); GCL-C (213 bp), 5′- GTC TIC AGG TGA ACA TIC CAA GC-3′ (SEQ ID NO: 24)(sense) and 5′- TGTTCTTCAGGGGCTCCAGTC-3′ (SEQ 10 NO: 25)(antisense); and NQO1 (212 bp), 5′- GTG TAC AGC ATI GGC CAC AC-3′ (SEQ 10 NO: 26)(sense) and 5′AAATGATGGCCCACAGAAAG-3′ (SEQ ID NO: 27)(antisense).
Mice were allowed free access to food containing 0.03% CA for a week. Their brains were then removed, and extracts were prepared and measured for GSH and GSSG levels. Under these conditions, CA increased both total GSH+GSSG and the ratio of GSH/GSSG (FIG. 6). […] Therefore, we concluded that orally-administered CA could not only reach the brain but was also effective in activating potentially neuroprotective pathways.

[3] = system: neural cells; experiment: Neuroprotection and toxicity of CA in vitro (summary statements); assay type: cell-based
[4] = system: AP-1 binding site; experiment: Enhancer element luciferase reporter p3xAP1luc; assay type: cell-based; settings: NEPP11 2 μM
Protocol: Because the E1 and E2 regions also contain other enhancer elements, we tested the effects of NEPP11 (2 μM) on the expression of luciferase activity derived from these elements, including the cAMP-responsive element (CRE; p3xCREluc), AP-1 binding site (p3xAP1luc), NF-κB binding site (p3xNF-κBluc), NFAT-binding site (p3xNFATluc), ETS-binding site (p3xETSluc), and MEF2-binding site (p3xMEF2luc).

[5] = system: Nrf2-GFP fusion protein; experiment: Localization of Nrf2-GFP fusion protein in transfected HT22 cells; assay type: cell-based; settings: NEPP11 2 μM, 24 h
Protocol: Activation of the Keap1/Nrf2 pathway by NEPP compounds in a neuronal cell line. Next, we examined the localization of an Nrf2-Green Fluorescent Protein (GFP) fusion protein (Numazawa et al., Am. J. Physiol. 285:C334-C342, 2003) in transfected HT22 cells. HT22 cells transfected with pNrf2-GFP were treated with vehicle or NEPP11 (2 μM) for 24 h and observed under epifluorescence microscopy. […] Thus we hypothesized that nuclear levels of Nrf2 protein should increase when cells are exposed to an electrophile such as NEPP, which promotes nuclear translocation. To test this hypothesis, cytosolic and nuclear fractions (200 μg protein) from cells that had been treated with vehicle or 2 μM NEPP11 for 24 h were precipitated and probed with anti-Nrf2 antibody and with anti-NeuN, a neuronal-specific nuclear protein. Indeed, we confirmed this hypothesis.

[6] = system: HO-1 protein; experiment: Induction of HO-1 protein in primary cortical cultures; assay type: cell-based, rat
Protocol: Immunoprecipitation, western blots, and immunofluorescence. These assays were performed as described (Gu et al., Science 297:1186-1190, 2002) by using the following antibodies: anti-HO-1 (SPA895, 1:1000, Santa Cruz Biotechnology), anti-Keap1 (1:100, Santa Cruz Biotechnology), or anti-actin (1:5,000, Oncogene Research Products, San Diego).
We reasoned that if, unlike other electrophiles (Kraft et al., J. Neurosci. 24:1101-1112, 2004), NEPPs accumulate predominantly in neurons, then HO-1 might be induced preferentially in this cell type. To check this possibility, we performed immunofluorescence studies with anti-HO-1 antibody after exposure to a potent NEPP compound. Cortical cultures (E17 and DIV14-21) treated with vehicle or NEPP11 (0.7 μM) were stained with anti-MAP-2 and anti-HO-1 and with Hoechst dye. In control cultures, non-neuronal cells expressed relatively more HO-1 at baseline than did neurons. […] To examine induction of HO-1 protein after exposure to NEPP, lysates (10 μg per lane) of primary cortical cultures treated with vehicle or NEPP11 for 24 h were probed with anti-HO-1 or anti-β-actin in immunoblots. […] The fold induction of HO-1 by NEPP11 was 2.2±0.25 (for 0.5 μM NEPP11) and 3.5±0.25 (for 1.0 μM NEPP11 as assessed by densitometry.
Cell Cultures, Transfection, and Glutathione (GSH) Measurement.

| SMILES | ARE activation with co-transfection of Nrf2-DN or Keap1 ([1]; PC12h cells, CA) | stimulation of ARE-based transcription ([1]; PC12h cells, CA 10 μM) [fold] | ARE activation relative to sulforaphane ([1]; equimolar basis, 20 h) | induction of phase 2 enzymes HO-1 and γ-GCS in brain [2] | toxicity in vitro relative to NEPP11 [3] | toxicity to neural cells ([3]; 100 μM CA) | neuroprotective concentration ([3]; as little as) | activity of p3xAP1luc [4] | localization of Nrf2-GFP [5] | fold induction of HO-1 (densitometry) ([6]; 0.5 μM NEPP11, 24 h) [fold] | fold induction of HO-1 (densitometry) ([6]; 1.0 μM NEPP11, 24 h) [fold] | HO-1 immunofluorescence ([6]; NEPP11 0.7 μM, E17 DIV14-21) |
| --- | --- | --- | --- | --- | --- | --- | --- | --- | --- | --- | --- | --- |
| CC(C)c1cc2c(c(O)c1O)[C@@]1(C(=O)O)CCCC(C)(C)[C@@H]1CC2 [CA, carnosic acid] | significantly repressed | > 10 | to a much greater extent than sulforaphane | significant induction | less toxic than NEPP11 | not toxic | 1-3 | – | – | – | – | – |
| COC(=O)CCCCC/C=C1/C(=O)C=C[C@H]1CCCCCCc1ccc(C)cc1 [NEPP11] | – | – | – | – | – | – | – | slightly depressed | translocated into the nucleus | 2.2±0.25 | 3.5±0.25 | increased mainly in neurons |
